Source: US11498928B2, “Macrocyclic spiroethers as Mcl-1 inhibitors” (ASCENTAGE PHARMA (SUZHOU) CO., LTD., priority 2019, dated 2022)

Columns and labels:
NCI-H929 cells = test: Cell viability assay (NCI-H929 cells), CCK-8; type: cell-based; details: Homo sapiens, NCI-H929, 24 h, 5% FBS
How it was run: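 NCI-H929 cells from ATCC were seeded at 20000 cells/well in 95 μL of culture medium in 96-well plates and grown for 4 hrs. Compounds, serially diluted in DMSO and further diluted in medium, were added as 5 μL, and cells were incubated for 24 hrs at 37° C. with 5% CO2. Viability was measured with CCK-8.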

[1] = molecular target: T1, Mcl-1 protein (residues 171-323) (Homo sapiens, UniProt Q07820); test: Inhibition of Mcl-1 by fluorescence polarization (FP) competitive binding assay with FAM-Bid tracer; details: 2 nM FAM-Bid, 20 nM Mcl-1, 30 min
T1 construct: Tag-free Mcl-1 protein (residues 171-323) was used in the FP assay
How it was run: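 Tag-free Mcl-1 (20 nM) with 2 nM FAM-Bid peptide in PBS, 0.01% BGG, 0.01% Triton X-100, 5% DMSO, 30 min at room temperature. FP read at Ex 485/Em 528 nm. IC50 from 10-point curves normalised to DMSO and no-protein controls.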

OPM-2 cells = test: Cell viability assay (OPM-2 cells), CCK-8; type: cell-based; details: Homo sapiens, OPM-2, 24 h, 5% FBS
How it was run: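 OPM-2 myeloma cells (20000/well) exposed to serially diluted compound for 24 h at 37 °C, 5% CO2, then incubated 4 h with CCK-8 and read at 450 nm. Readings normalized to vehicle; IC50 from nonlinear regression.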

T1 sequence (Q07820 171-323): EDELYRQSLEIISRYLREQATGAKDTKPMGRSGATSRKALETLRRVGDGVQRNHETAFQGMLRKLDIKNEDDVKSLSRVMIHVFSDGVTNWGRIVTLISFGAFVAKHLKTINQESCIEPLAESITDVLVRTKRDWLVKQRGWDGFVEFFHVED

IC50 (NCI-H929 cells) [nM]	IC50 [1] [nM]	Compound	IC50 (OPM-2 cells) [nM]
9.4	14	C[C@@H]1[C@@H](C)S(=O)(=O)NC(=O)c2ccc3c(c2)N(C[C@@H]2CC[C@H]2[C@@H](OCC(=O)N(C)C)C2=C[C@H]1C2)C[C@@]1(CCCc2c1ccc(Cl)c2F)CO3 [compound 64, 2-(((1 S, 11′R,12′S,13′R,16′R,16a′R,18a′R,E)-6-chloro-5-fluoro-11′,12′-dimethyl-10′,10′-dioxido-8′-oxo-3,4,8′,9′,12′,13′,16′,16a′,17′,18′,18a′,19′-dodecahydro-1′H,2H,3′H, 11′H-spiro[naphthalene-1,2′-[5,7]etheno[13,15]methanocyclobuta[i][1,4]oxazepino[3,4-f][1]thia[2,7]diazacyclohexadecin]-16′-yl)oxy)-N,N-dimethylacetamide]	120
210	15	C[C@@H]1[C@@H](C)S(=O)(=O)NC(=O)c2ccc3c(c2)N(C[C@@H]2CC[C@H]2[C@@H](OCCN2CCNCC2)C2=C[C@H]1C2)C[C@@]1(CCCc2c1ccc(Cl)c2F)CO3 [compound 65, (1S,11′R,12′S,13′R,16′R,16a′R,18a′R,E)-6-chloro-5-fluoro-11′,12′-dimethyl-16′-(2-(piperazin-1-yl)ethoxy)-3,4,12′,13′,16′,16a′,17′,18′,18a′,19′-decahydro-1′H,2H,3′H, 11′H-spiro[naphthalene-1,2′-[5,7]etheno[13,15]methanocyclobuta[i][1,4]oxazepino[3,4-f][1]thia[2,7]diazacyclohexadecin]-8′(9′H)-one 10′,10′-dioxide]	247
7.7	15	C[C@@H]1[C@@H](C)S(=O)(=O)NC(=O)c2ccc3c(c2)N(C[C@@H]2CC[C@H]2[C@@H](OCCN2CCCC2)C2=C[C@H]1C2)C[C@@]1(CCCc2c1ccc(Cl)c2F)CO3 [compound 66, (1S,11′R,12′S,13′R,16′R,16a′R,18a′R,E)-6-chloro-5-fluoro-11′,12′-dimethyl-16′-(2-(pyrrolidin-1-yl)ethoxy)-3,4,12′,13′,16′,16a′,17′,18′,18a′,19′-decahydro-1′H,2H,3′H,11′H-spiro[naphthalene-1,2′-[5,7]etheno[13,15]methanocyclobuta[i][1,4]oxazepino[3,4-f][1]thia[2,7]diazacyclohexadecin]-8′(9′H)-one 10′,10′-dioxide]	31
97	15	C[C@@H]1[C@@H](C)S(=O)(=O)NC(=O)c2ccc3c(c2)N(C[C@@H]2CC[C@H]2[C@@H](OCC(=O)N2CCOCC2)C2=C[C@H]1C2)C[C@@]1(CCCc2c1ccc(Cl)c2F)CO3 [compound 67, (1S,11′R,12′S,13′R,16′R,16a′R,18a′R,E)-6-chloro-5-fluoro-11′,12′-dimethyl-16′-(2-morpholino-2-oxoethoxy)-3,4,12′,13′,16′,16a′,17′,18′,18a′,19′-decahydro-1′H,2H,3′H, 11′H-spiro[naphthalene-1,2′-[5,7]etheno[13,15]methanocyclobuta[i][1,4]oxazepino[3,4-f][1]thia[2,7]diazacyclohexadecin]-8′(9′H)-one 10′,10′-dioxide]	77
43	15	C[C@@H]1[C@@H](C)S(=O)(=O)NC(=O)c2ccc3c(c2)N(C[C@@H]2CC[C@H]2[C@@H](OCC(=O)N2CCCC2)C2=C[C@H]1C2)C[C@@]1(CCCc2c1ccc(Cl)c2F)CO3 [compound 68, (1S,11′R,12′S,13′R,16′R,16a′R,18a′R,E)-6-chloro-5-fluoro-11′,12′-dimethyl-16′-(2-oxo-2-(pyrrolidin-1-yl)ethoxy)-3,4,12′,13′,16′,16a′,17′,18′,18a′,19′-decahydro-1′H,2H,3′H, 11′H-spiro[naphthalene-1,2′-[5,7]etheno[13,15]methanocyclobuta[i][1,4]oxazepino[3,4-f][1]thia[2,7]diazacyclohexadecin]-8′(9′H)-one 10′,10′-dioxide]	47
69	14	C[C@@H]1[C@@H](C)S(=O)(=O)NC(=O)c2ccc3c(c2)N(C[C@@H]2CC[C@H]2[C@@H](OCC(=O)N2CCCCC2)C2=C[C@H]1C2)C[C@@]1(CCCc2c1ccc(Cl)c2F)CO3 [compound 69, (1S,11′R,12′S,13′R,16′R,16a′R,18a′R,E)-6-chloro-5-fluoro-11′,12′-dimethyl-16′-(2-oxo-2-(piperidin-1-yl)ethoxy)-3,4,12′,13′,16′,16a′,17′,18′,18a′,19′-decahydro-1′H,2H,3′H,11′H-spiro[naphthalene-1,2′-[5,7]etheno[13,15]methanocyclobuta[i][1,4]oxazepino[3,4-f][1]thia[2,7]diazacyclohexadecin]-8′(9′H)-one 10′,10′-dioxide]	40
81	14	C[C@@H]1[C@@H](C)S(=O)(=O)NC(=O)c2ccc3c(c2)N(C[C@@H]2CC[C@H]2[C@@H](OCC(=O)N2CCN(C)CC2)C2=C[C@H]1C2)C[C@@]1(CCCc2c1ccc(Cl)c2F)CO3 [compound 70, (1S,11′R,12′S,13′R,16′R,16a′R,18a′R,E)-6-chloro-5-fluoro-11′,12′-dimethyl-16′-(2-(4-methylpiperazin-1-yl)-2-oxoethoxy)-3,4,12′,13′,16′,16a′,17′,18′,18a′,19′-decahydro-1′H,2H,3′H, 11′H-spiro[naphthalene-1,2′-[5,7]etheno[13,15]methanocyclobuta[i][1,4]oxazepino[3,4-f][1]thia[2,7]diazacyclohexadecin]-8′(9′H)-one 10′,10′-dioxide]	35
6	13	C[C@@H]1[C@@H](C)S(=O)(=O)NC(=O)c2ccc3c(c2)N(C[C@@H]2CC[C@H]2[C@@H](OCC2CCN(C)CC2)C2=C[C@H]1C2)C[C@@]1(CCCc2c1ccc(Cl)c2F)CO3 [compound 71]	81
70	14	CCOC(=O)CO[C@H]1C2=C[C@@H](C2)[C@H](C)[C@@H](C)S(=O)(=O)NC(=O)c2ccc3c(c2)N(C[C@@H]2CC[C@H]21)C[C@@]1(CCCc2c1ccc(Cl)c2F)CO3 [compound 72, ethyl 2-(((1S,11′R,12′S,13′R,16′R,16a′R,18a′R,E)-6-chloro-5-fluoro-11′,12′-dimethyl-10′,10′-dioxido-8′-oxo-3,4,8′,9′,12′,13′,16′,16a′,17′,18′,18a′,19′-dodecahydro-1′H,2H,3′H,11′H-spiro[naphthalene-1,2′-[5,7]etheno[13,15]methanocyclobuta[i][1,4]oxazepino[3,4-f][1]thia[2,7]diazacyclohexadecin]-16′-yl)oxy)acetate]	89
150	19	CC(C)OC(=O)CO[C@H]1C2=C[C@@H](C2)[C@H](C)[C@@H](C)S(=O)(=O)NC(=O)c2ccc3c(c2)N(C[C@@H]2CC[C@H]21)C[C@@]1(CCCc2c1ccc(Cl)c2F)CO3 [compound 73, isopropyl 2-(((1S,11′R,12′S,13′R,16′R,16a′R,18a′R,E)-6-chloro-5-fluoro-11′,12′-dimethyl-10′,10′-dioxido-8′-oxo-3,4,8′,9′,12′,13′,16′,16a′,17′,18′,18a′,19′-dodecahydro-1′H,2H,3′H,11′H-spiro[naphthalene-1,2′-[5,7]etheno[13,15]methanocyclobuta[i][1,4]oxazepino[3,4-f][1]thia[2,7]diazacyclohexadecin]-16′-yl)oxy)acetate]	67
450	20	C[C@@H]1[C@@H](C)S(=O)(=O)NC(=O)c2ccc3c(c2)N(C[C@@H]2CC[C@H]2[C@@H](OCC(=O)O)C2=C[C@H]1C2)C[C@@]1(CCCc2c1ccc(Cl)c2F)CO3 [compound 74, 2-(((1S,11′R,12′S,13′R,16′R,16a′R,18a′R,E)-6-chloro-5-fluoro-11′,12′-dimethyl-10′,10′-dioxido-8′-oxo-3,4,8′,9′,12′,13′,16′,16a′,17′,18′,18a′,19′-dodecahydro-1′H,2H,3′H,11′H-spiro[naphthalene-1,2′-[5,7]etheno[13,15]methanocyclobuta[i][1,4]oxazepino[3,4-f][1]thia[2,7]diazacyclohexadecin]-16′-yl)oxy)acetic acid]	384
51	36	COC1CCN(CCO[C@H]2C3=C[C@@H](C3)[C@H](C)[C@@H](C)S(=O)(=O)NC(=O)c3ccc4c(c3)N(C[C@@H]3CC[C@H]32)C[C@@]2(CCCc3c2ccc(Cl)c3F)CO4)CC1 [compound 75, (1S,11′R,12′S,13′R,16′R,16a′R,18a′R,E)-6-chloro-5-fluoro-16′-(2-(4-methoxypiperidin-1-yl)ethoxy)-11′,12′-dimethyl-3,4,12′,13′,16′,16a′,17′,18′,18a′,19′-decahydro-1′H,2H,3′H,11′H-spiro[naphthalene-1,2′-[5,7]etheno[13,15]methanocyclobuta[i][1,4]oxazepino[3,4-f][1]thia[2,7]diazacyclohexadecin]-8′(9′H)-one 10′,10′-dioxide]	41
